{
  "source": "patent US20110104281A1",
  "about": "“METHOD FOR TREATING PAIN USING A SUBSTITUTED 2-AMINOTETRALIN COMPOUND” (UCB PHARMA GMBH, priority 2006, published 2011)",
  "test_system": "Sprague Dawley rats",
  "assay": "TNF model of muscular mechanical hyperalgesia: withdrawal threshold to muscle pressure (Randall-Selitto)",
  "format": "in vivo, rat",
  "details": "for % MPE on withdrawal pressure, Mean: TNF model",
  "description": "The TNF test is used as a model of muscular mechanical hyperalgesia, which occurs in human fibromyalgia, myofascial pain or back pain. Intramuscular injection of tumor necrosis factor alpha (TNF) induces mechanical muscle hyperalgesia in rats. This is quantified by measuring the withdrawal threshold to muscle pressure and the grip strength. Mechanical withdrawal threshold to muscle pressure is measured with an analgesimeter exerting pressure on the gastrocnemius muscle previously injected with TNF. Forelimb grip strength is measured with a digital grip force meter after TNF injection into biceps brachii muscles. […] See, for example, […] et al., Pain 104(3):579-588 (2003). Adult male Sprague Dawley rats, from Charles River Sulzfeld, Germany, with a body weight of 220 g to 300 g were group-housed (3 animals per cage) and maintained in a room with controlled temperature (21-22° C.) and a reversed light-dark cycle (12 h/12 h) with food and water available ad libitum. […] All rats were habituated to the behavioral tests before injections and baseline values were recorded over three test days. Mechanical withdrawal thresholds to muscle pressure were measured with an analgesimeter (Ugo Basile, Comerio, Italy) according to the Randall-Selitto method. The rats were permitted to crawl into a sock, allowing them to relax. […] The pressure needed to elicit withdrawal was recorded. […] Three pre-tests were performed on days -3, -2 and -1, testing the left and right side in succession. Pre-test values varied only minimally over these 3 days. The mean withdrawal threshold for the 3 pre-test days was determined and taken for analysis. Only animals with a significant TNF effect were included for further analysis. The rats were injected with TNF into the gastrocnemius muscle. […] The rats were then placed in groups of 10 and treated with 0.3, 1.0 or 3.0 mg/kg rotigotine or vehicle i.p. Injection volume of i.p. injections was 0.5 ml/kg (weight dependent). Grip strength was again tested after 15 to 60 minutes, following injection of the rotigotine. Data are shown in graphs displaying means and SEMs. Pre- and post-treatment data were compared by ANOVA (analysis of variance) and a Tukey post hoc test. […] Maximal possible effects (MPE) were calculated for all types of treatment.",
  "data": [
    {"smiles": "CCCN(CCc1cccs1)[C@H]1CCc2c(O)cccc2C1", "note": "[Rotigotine, 5,6,7,8-tetrahydro-6-[propyl-[2-(2-thienyl)ethyl]amino]-1-naphthol]", "values": [
      {"measurement": "% MPE on withdrawal pressure, Mean", "setting": "rotigotine 0.3 mg/kg", "value": "−6.6", "unit": "%"},
      {"measurement": "% MPE on withdrawal pressure, Mean", "setting": "rotigotine 1 mg/kg", "value": 4.8, "unit": "%"},
      {"measurement": "Reduction of muscular hyperalgesia induced by TNF injected into muscle", "setting": "rats, 0.3, 1 and 3 mg/kg i.p., conclusion of the study", "value": "dose-dependent reduction of muscular hyperalgesia"},
      {"measurement": "Withdrawal pressure, Mean", "setting": "with TNF i.m. into gastrocnemius, rotigotine 0.3 mg/kg i.p.", "value": 5.6, "unit": "g"},
      {"measurement": "Withdrawal pressure, Mean", "setting": "with TNF i.m. into gastrocnemius, rotigotine 1 mg/kg i.p.", "value": 6.5, "unit": "g"},
      {"measurement": "Withdrawal pressure, Mean", "setting": "with TNF i.m. into gastrocnemius, rotigotine 3 mg/kg i.p.", "value": 6.5, "unit": "g"},
      {"measurement": "Withdrawal pressure, Mean", "setting": "without TNF, rotigotine 0.3 mg/kg i.p.", "value": 9.1, "unit": "g"},
      {"measurement": "Withdrawal pressure, Mean", "setting": "without TNF, rotigotine 3 mg/kg i.p.", "value": 9.7, "unit": "g"}
    ]}
  ]
}
